Format in all cases: cell-based
The subject of assay [1] is Human gastric cancer cells NCI-N87. In words: Cytotoxicity test for compounds (CellTiter-Glo cell proliferation inhibition). The note with it: Homo sapiens, NCI-N87, 72 h. As for the experimental part:
(§1) Biological Test Example 1: Cytotoxicity Test for Compounds
(§2) • 96-well clear flat-bottom white plate (Corning, #3610) • RPMI1640 culture medium (Gibco, #A10491-01) • Fetal Bovine Serum (Sigma-Aldrich, #F8687-500ML) • CellTiter-Glo® Luminescent Cell Viability Assay (Promega, # G7572/G7571)
(§3) Human gastric cancer cells NCI-N87 (ATCC, Cat. No.: CRL-5822), human breast cancer cells MDA-MB-468 (Cell Bank of the Committee for Type Culture Collection of the Chinese Academy of Sciences, Cat. No.: TCHu136), and human breast cancer cells KPL-4 (Nanjing Cobioer Biosciences Co., Ltd., Cat. No.: CBP60379) were washed with PBS and digested with 0.25% Trypsin-EDTA trypsin for about 3-10 min. The digestion was terminated with a complete cell culture medium. The cells were centrifuged at 1000 rpm for 5 min, and the supernatant was discarded. The cells were resuspended in a complete cell culture medium. The cell number was counted using a cell counter, and the cells were adjusted to the desired density. 90.0 µL of the cell suspension was added to each well at 3000 cells/well. The cell plate was incubated in a cell incubator at 37°C with 5% CO2 overnight.
(§4) In the experiment, a DMSO control group and test sample groups were set. The cell plate was removed from the incubator to observe cell adherence. After the cells adhered, 10.00 µL of the sample (starting from a final concentration of 10 µM, 5-fold dilution, 9 concentrations) was added to each well. After the mixture was gently shaken uniformly, the plate was incubated in the incubator.
(§5) After 3 days of incubation, 100.0 µL/well of CellTiter-Glo™ (Promega, Cat. No.: G7572/G7571) working solution was added. The plate was shaken on a thermostatic shaker to lyse the cells. After 10 min, the plate was read on a microplate reader.
(§6) Data analysis: GraphPad Prism 8.0 software was used to plot a graph with the Log value of the sample concentration as the abscissa and the Inhibition% as the ordinate. The data were analyzed by Nonlinear regression (curve fit) to obtain the IC50 value of each test sample. Table 1. Inhibition activity of compounds of the present disclosure on cell proliferation

Assay [2] has as its system human breast cancer cells KPL-4. The description is as above. The note with it: Homo sapiens, KPL4, 72 h. Here is the method: as §1, §2, §3, §4, §5, §6
The subject of assay [3] is human breast cancer cells MDA-MB-468. The description is as above. The note with it: Homo sapiens, MDA-MB-468, 72 h. Here is the method: as §1, §2, §3, §4, §5, §6
Assay [4] deals with CD34^+ hematopoietic stem/progenitor cells. In words: Hematologic toxicity of compounds (CD34+ HSC viability, CTG). Conditions: 240 h; cytotoxic drugs; treatment for 10 days; CTG cell viability. As for the experimental part: Experimental objective: The effects of cytotoxic drugs on the differentiation and development of CD34^+ hematopoietic stem/progenitor cells into the megakaryocytic lineage were investigated, so as to evaluate their potential hematologic toxicity of causing thrombocytopenia.
Experimental design: After resuscitation, bone marrow-mobilized peripheral blood-derived HSCs were seeded at 2000 cells/well/180 µL in an ultra-low attachment 96-well round-bottom plate and stabilized for 4 h. The cells were treated with compounds by performing a 5-fold gradient dilution starting from the highest dose of 1 µM, resulting in a total of 9 concentration points, and this treatment was maintained continuously for 10 days. Cell viability was detected using the CTG reagent (CellTiter-Glo luminescent cell viability detection kit, manufacturer: Promega, Cat. No.: G7571). Table 2. Hematologic toxicity test results of cytotoxic drugs

[5] abbreviates: 3 days of incubation, CellTiter-Glo, read-out: NCI-87/IC50.
Where [6] appears, read: 3 days of incubation, CellTiter-Glo, read-out: KPL-4/IC50.
[7] abbreviates: 3 days of incubation, CellTiter-Glo, read-out: MDA-MD-468/IC50.

Like-named read-outs stand apart in the source and are kept apart here. Some results are limits rather than exact numbers.

Regarding `CC[C@H](C)[C@@H]([C@@H](CC(=O)N1CCC[C@H]1[C@H](OC)[C@@H](C)C(=O)O[C@H](CC#N)Cc1cccc(N)c1)OC)N(C)C(=O)[C@@H](NC(=O)[C@H](C(C)C)N(C)C)C(C)C` [Example 9, (S)-1-(3-aminophenyl)-3-cyanopropan-2-yl (2R,3R)-3-((S)-1-((3R,4S,5S)-4-((S)-2-((S)-2-(dimethylamino)-3-methylbutanamido)-N,3-dimethylbutanamido)-3-methoxy-5-methylheptanoyl)pyrrolidin-2-yl)-3-methoxy-2-methylpropanoate], the IC50 in assay [1] (setting [5]) turned out to be 3.84 nM; in assay [2] (setting [6]) it was 0.74 nM; in assay [3] (setting [7]), 3.34 nM.

Consider `C=CCN(C(=O)[C@H](C)[C@@H](OC)[C@@H]1CCCN1C(=O)C[C@@H](OC)[C@H]([C@@H](C)CC)N(C)C(=O)[C@@H](NC(=O)[C@H](C(C)C)N(C)C)C(C)C)[C@H](CC#N)Cc1cccc(N)c1` [Example 10, (S)-N-((3R,4S,5S)-1-((S)-2-((1R,2R)-3-(allyl((S)-1-(3-aminophenyl)-3-cyanopropan-2-yl)amino)-1-methoxy-2-methyl-3-oxopropyl)pyrrolidin-1-yl)-3-methoxy-5-methyl-1-oxoheptan-4-yl)-2-((S)-2-(dimethylamino)-3-methylbutanamido)-N,3-dimethylbutanamide], for which the results for the IC50 in assay [1] (setting [5]), in assay [2] (setting [6]) and in assay [3] (setting [7]) were 3.35 nM, 1.25 nM and 1.97 nM, respectively.

Turning to `CC[C@H](C)[C@@H]([C@@H](CC(=O)N1CCC[C@H]1[C@H](OC)[C@@H](C)C(=O)O[C@H](C)Cc1cccc(N)c1)OC)N(C)C(=O)[C@@H](NC(=O)[C@H](C(C)C)N(C)C)C(C)C` [Example 11, (R)-1-(3-aminophenyl)propan-2-yl (2R,3R)-3-((S)-1-((3R,4S,5S)-4-((S)-2-((S)-2-(dimethylamino)-3-methylbutanamido)-N,3-dimethylbutanamido)-3-methoxy-5-methylheptanoyl)pyrrolidin-2-yl)-3-methoxy-2-methylpropanoate], the IC50 in assay [1] (setting [5]) is 0.15 nM; in assay [2] (setting [6]) it was 0.1 nM; in assay [3] (setting [7]), 3 nM.

With `CC[C@H](C)[C@@H]([C@@H](CC(=O)N1CCC[C@H]1[C@H](OC)[C@@H](C)C(=O)O[C@@H](C)Cc1cccc(N)c1)OC)N(C)C(=O)[C@@H](NC(=O)[C@H](C(C)C)N(C)C)C(C)C` [Example 12, (S)-1-(3-aminophenyl)propan-2-yl (2R,3R)-3-((S)-1-((3R,4S,5S)-4-((S)-2-((S)-2-(dimethylamino)-3-methylbutanamido)-N,3-dimethylbutanamido)-3-methoxy-5-methylheptanoyl)pyrrolidin-2-yl)-3-methoxy-2-methylpropanoate], the IC50 in assay [1] (setting [5]) is 4.05 nM; in assay [2] (setting [6]), 1.42 nM; in assay [3] (setting [7]), 11.8 nM.

With `CC[C@H](C)[C@@H]([C@@H](CC(=O)N1CCC[C@H]1[C@H](OC)[C@@H](C)C(=O)OCCc1cccc(N)c1)OC)N(C)C(=O)[C@@H](NC(=O)[C@H](C(C)C)N(C)C)C(C)C` [Example 13], the figures for the IC50 in assay [1] (read-out: NCI-87/IC50 (nM)), in assay [2] (read-out: KPL-4/IC50 (nM)) and in assay [3] (read-out: MDA-MD-468/IC50 (nM)) were 0.58 nM, 0.18 nM and 0.56 nM, respectively.

Consider `CC[C@H](C)[C@@H]([C@@H](CC(=O)N1CCC[C@H]1[C@H](OC)[C@@H](C)C(=O)O[C@H](CO)Cc1cccc(N)c1)OC)N(C)C(=O)[C@@H](NC(=O)[C@H](C(C)C)N(C)C)C(C)C` [Example 14], for which the IC50 in assay [1] (read-out: NCI-87/IC50 (nM)) was determined as 5.13 nM; in assay [2] (read-out: KPL-4/IC50 (nM)), 1.13 nM; in assay [3] (read-out: MDA-MD-468/IC50 (nM)), 3.82 nM.

On to `CC[C@H](C)[C@@H]([C@@H](CC(=O)N1CCC[C@H]1[C@H](OC)[C@@H](C)C(=O)O[C@H](CN=[N+]=[N-])Cc1cccc(N)c1)OC)N(C)C(=O)[C@@H](NC(=O)[C@H](C(C)C)N(C)C)C(C)C` [Example 15], for which the results for the IC50 in assay [1] (read-out: NCI-87/IC50 (nM)), in assay [2] (read-out: KPL-4/IC50 (nM)) and in assay [3] (read-out: MDA-MD-468/IC50 (nM)) were 11.3 nM, 2 nM and 2.74 nM, respectively.

For `C#CC[C@H](Cc1cccc(N)c1)OC(=O)[C@H](C)[C@@H](OC)[C@@H]1CCCN1C(=O)C[C@@H](OC)[C@H]([C@@H](C)CC)N(C)C(=O)[C@@H](NC(=O)[C@H](C(C)C)N(C)C)C(C)C` [Example 17], the IC50 in assay [1] (read-out: NCI-87/IC50 (nM)), in assay [2] (read-out: KPL-4/IC50 (nM)) and in assay [3] (read-out: MDA-MD-468/IC50 (nM)) was below 0.0256 nM in each case.

On to `C=CC[C@H](Cc1cccc(N)c1)OC(=O)[C@H](C)[C@@H](OC)[C@@H]1CCCN1C(=O)C[C@@H](OC)[C@H]([C@@H](C)CC)N(C)C(=O)[C@@H](NC(=O)[C@H](C(C)C)N(C)C)C(C)C` [Example 18], for which the IC50 in assay [1] (read-out: NCI-87/IC50 (nM)), in assay [2] (read-out: KPL-4/IC50 (nM)) and in assay [3] (read-out: MDA-MD-468/IC50 (nM)) was below 0.0256 nM in each case.

In the case of `C=CC(Cc1cccc(N)c1)OC(=O)[C@H](C)[C@@H](OC)[C@@H]1CCCN1C(=O)C[C@@H](OC)[C@H]([C@@H](C)CC)N(C)C(=O)[C@@H](NC(=O)[C@H](C(C)C)N(C)C)C(C)C` (stereo partly shown) [Example 19], the IC50 in assay [1] (read-out: NCI-87/IC50 (nM)), in assay [2] (read-out: KPL-4/IC50 (nM)) and in assay [3] (read-out: MDA-MD-468/IC50 (nM)) was below 0.0256 nM each time.

With `CC[C@H](C)[C@@H]([C@@H](CC(=O)N1CCC[C@H]1[C@H](OC)[C@@H](C)C(=O)O[C@H](CF)Cc1cccc(N)c1)OC)N(C)C(=O)[C@@H](NC(=O)[C@H](C(C)C)N(C)C)C(C)C` [Example 24], the IC50 in assay [1] (read-out: NCI-87/IC50 (nM)), in assay [2] (read-out: KPL-4/IC50 (nM)) and in assay [3] (read-out: MDA-MD-468/IC50 (nM)) was below 0.0256 nM each time.

As for `CC[C@H](C)[C@@H]([C@@H](CC(=O)N1CCC[C@H]1[C@H](OC)[C@@H](C)C(=O)O[C@@H](Cc1cccc(N)c1)C(F)F)OC)N(C)C(=O)[C@@H](NC(=O)[C@H](C(C)C)N(C)C)C(C)C` [Example 25], the IC50 in assay [1] (read-out: NCI-87/IC50 (nM)), in assay [2] (read-out: KPL-4/IC50 (nM)) and in assay [3] (read-out: MDA-MD-468/IC50 (nM)) was below 0.0256 nM in each case.

In the case of `CCC(C)C(C(CC(=O)N1CCCC1C(OC)C(C)C(=O)OC(Cc1cccc(N)c1)C(=O)NC)OC)N(C)C(=O)C(NC(=O)C(C(C)C)N(C)C)C(C)C` (stereo not shown) [Example 30], the IC50 in assay [1] (setting [5]) turned out to be 5.62 nM; in assay [2] (setting [6]) it was 2.42 nM; in assay [3] (setting [7]), 0.72 nM.

As for `C=C(C)C(Cc1cccc(N)c1)OC(=O)[C@H](C)[C@@H](OC)[C@@H]1CCCN1C(=O)C[C@@H](OC)[C@H]([C@@H](C)CC)N(C)C(=O)[C@@H](NC(=O)[C@H](C(C)C)N(C)C)C(C)C` (stereo partly shown) [Example 31], the figures for the IC50 in assay [1] (read-out: NCI-87/IC50 (nM)), in assay [2] (read-out: KPL-4/IC50 (nM)) and in assay [3] (read-out: MDA-MD-468/IC50 (nM)) were below 0.0256 nM, below 0.0256 nM and 0.11 nM, respectively.

For the compound `CC[C@H](C)[C@@H]([C@@H](CC(=O)N1CCC[C@H]1[C@H](OC)[C@@H](C)C(=O)OC1(Cc2cccc(N)c2)CC1)OC)N(C)C(=O)[C@@H](NC(=O)[C@H](C(C)C)N(C)C)C(C)C` [Example 32], the IC50 in assay [1] (read-out: NCI-87/IC50 (nM)), in assay [2] (read-out: KPL-4/IC50 (nM)) and in assay [3] (read-out: MDA-MD-468/IC50 (nM)) was below 0.0256 nM in each case.

Regarding `CC[C@H](C)[C@@H]([C@@H](CC(=O)N1CCC[C@H]1[C@H](OC)[C@@H](C)C(=O)N(CC#N)CCc1cccc(N)c1)OC)N(C)C(=O)[C@@H](NC(=O)[C@H](C(C)C)N(C)C)C(C)C` [Example 45, (S)-N-((3R,4S,5S)-1-((S)-2-((1R,2R)-3-((3-aminophenethyl)(cyanomethyl)amino)-1-methoxy-2-methyl-3-oxopropyl)pyrrolidin-1-yl)-3-methoxy-5-methyl-1-oxoheptan-4-yl)-2-((S)-2-(dimethylamino)-3-methylbutanamido)-N,3-dimethylbutanamide], the IC50 in assay [1] (setting [5]) is 2.21 nM; in assay [2] (setting [6]), 0.65 nM; in assay [4], 0.235 nM.

For `CC[C@H](C)[C@@H]([C@@H](CC(=O)N1CCC[C@H]1[C@H](OC)[C@@H](C)C(=O)N(C)CCc1cccc(N)c1)OC)N(C)C(=O)[C@@H](NC(=O)[C@H](C(C)C)N(C)C)C(C)C` [WO2023081230A1 Compound 1, reference compound], in assay [4], the IC50 turned out to be 0.017 nM.

These data come from EP4786483A1, “AURISTATIN DERIVATIVE AND ANTIBODY-DRUG CONJUGATE THEREOF” (priority 2023, dated 2025).
